Values joined by “and” are separate entries in the source; they are usually repeats but may differ in a detail not shown here. Identical values can stand only once.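 Method: 48-hour compound exposure of cells in 96-well plates, five concentrations, linear interpolation of endpoints. GI50: concentration for 50% inhibition of growth. TGI is the concentration that stops growth completely.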

Among the test systems are SK-MEL-28 melanoma; A549 NSCLC; SF-539 CNS; U251 CNS; SNB-75 CNS; SK-MEL-2 melanoma; MOLT-4 leukemia; COLO 205 colon; UACC-62 melanoma; SF-295 CNS.
Test in all cases: NCI-60 cell line screen, 48 h

As to `CC[C@H](C)[C@H](NC(=O)[C@H]1CCCCN1C)C(=O)N(C)[C@H](C[C@@H](OC(C)=O)c1nc(C(=O)N[C@@H](Cc2ccccc2)C[C@H](C)C(=O)O)cs1)C(C)C`, the GI50 was 8.63 µM in the test with SK-MEL-28 melanoma; 0.00153 µM and 0.00165 µM in the test on A549 NSCLC; 0.000576 µM and < 0.00165 µM in the test with SF-539 CNS; 0.000481 µM and 0.00165 µM with U251 CNS; 0.000568 µM and 0.00165 µM with SNB-75 CNS; 0.0007 µM in the test on SK-MEL-2 melanoma. The GI50 is 0.00376 µM and 0.00165 µM in the test with MOLT-4 leukemia; 0.000394 µM with COLO 205 colon; 0.000305 µM and < 0.00165 µM in the test on SF-295 CNS. In addition, the TGI in the test on SK-MEL-28 melanoma is greater than 16.5 µM; with A549 NSCLC it was greater than 16.5 µM; with SF-539 CNS it was 0.00596 µM and < 0.00165 µM; in the test on U251 CNS it was greater than 16.5 µM; in the test with SNB-75 CNS it was greater than 16.5 µM; with MOLT-4 leukemia, greater than 16.5 µM. Further, the TGI in the test on COLO 205 colon was 0.00275 µM; with UACC-62 melanoma it was greater than 16.5 µM; in the test on SF-295 CNS, 0.00282 µM and < 0.00165 µM.
Regarding `Cn1cc(C2=C(c3cn(CCCCCSC(=N)N)c4ccccc34)C(=O)NC2=O)c2ccccc21`, the GI50 in the test with SK-MEL-28 melanoma was 3.55 µM; in the test on A549 NSCLC it was 4.4 µM; in the test on SF-539 CNS, 3.51 µM; with U251 CNS it was 2.5 µM; with SNB-75 CNS, 1.01 µM; with SK-MEL-2 melanoma, 3.13 µM. The GI50 was 2.06 µM with MOLT-4 leukemia, 1.24 µM in the test with COLO 205 colon, 3.87 µM in the test with UACC-62 melanoma and 1.76 µM with SF-295 CNS. Also, the TGI in the test on SK-MEL-28 melanoma amounted to 7.17 µM; with A549 NSCLC, 8.65 µM; with SF-539 CNS, 6.77 µM; in the test with U251 CNS, 5.65 µM; in the test with SNB-75 CNS it was 4.36 µM; in the test with SK-MEL-2 melanoma, 6.43 µM. The TGI came out at 6.25 µM in the test on MOLT-4 leukemia, 4.68 µM in the test with COLO 205 colon, 7.25 µM in the test on UACC-62 melanoma and 5.38 µM with SF-295 CNS.
For `CN(Cc1cnc2nc(N)nc(N)c2n1)c1ccc(C(=O)NC(CCC(=O)O)C(=O)O)cc1Br` (stereo not given), the GI50 is 0.23 µM in the test on SK-MEL-28 melanoma; less than 0.01 µM in the test on A549 NSCLC; less than 0.01 µM in the test with SF-539 CNS; less than 0.0134 µM with U251 CNS; less than 0.01 µM in the test on SK-MEL-2 melanoma; less than 0.01 µM in the test on MOLT-4 leukemia. Also, the figures for the GI50 in the test with COLO 205 colon, in the test with UACC-62 melanoma and with SF-295 CNS were less than 0.0215 µM, less than 0.01 µM and less than 0.01 µM, respectively. Besides, the TGI is 19.5 µM with SK-MEL-28 melanoma; greater than 100 µM in the test on A549 NSCLC; 8.44 µM with SF-539 CNS; greater than 100 µM with U251 CNS; 5.06 µM in the test with SNB-75 CNS; greater than 100 µM in the test with SK-MEL-2 melanoma. For the same molecule, the TGI with MOLT-4 leukemia was greater than 46.3 µM; in the test on COLO 205 colon, 17.4 µM; with UACC-62 melanoma, 7.35 µM; with SF-295 CNS, 0.201 µM.
For the molecule `COC(=O)CSSCc1ccc([N+](=O)[O-])cc1`, the TGI stood at 36.7 µM in the test with SK-MEL-28 melanoma; 88.8 µM in the test with A549 NSCLC; 32.7 µM in the test with SF-539 CNS; 30.8 µM in the test on U251 CNS; 55.2 µM with SNB-75 CNS; 42.4 µM in the test with SK-MEL-2 melanoma. In addition, the TGI in the test on MOLT-4 leukemia was greater than 100 µM; in the test on COLO 205 colon, 37.7 µM; in the test with UACC-62 melanoma, 31.5 µM; in the test with SF-295 CNS it was 43 µM.
As to `O=C1/C=C/[C@@H](O)[C@@H]2C[C@@H](O)C[C@H]2/C=C/CCC[C@H](C(F)(F)F)O1`, the GI50 was 0.096 µM with SK-MEL-28 melanoma; 2.1 µM in the test with A549 NSCLC; 0.504 µM with SF-539 CNS; 1.7 µM in the test on U251 CNS; 0.0603 µM in the test on SNB-75 CNS; 0.244 µM in the test on SK-MEL-2 melanoma. Further, the GI50 is 0.174 µM in the test on MOLT-4 leukemia, 0.0381 µM in the test on COLO 205 colon, 0.223 µM with UACC-62 melanoma and greater than 27 µM in the test with SF-295 CNS. Besides, the TGI in the test with SK-MEL-28 melanoma is 0.65 µM; with A549 NSCLC it was greater than 100 µM; in the test with SF-539 CNS, greater than 100 µM; in the test on U251 CNS, greater than 100 µM; in the test with SNB-75 CNS it was greater than 100 µM; in the test with SK-MEL-2 melanoma, 0.78 µM. The TGI in the test with MOLT-4 leukemia was 0.625 µM; with COLO 205 colon it was 0.15 µM; in the test on UACC-62 melanoma, greater than 35.4 µM; with SF-295 CNS, greater than 100 µM.
Take `CCCCCCCCCCCC[n+]1ccc2ccccc2c1`: the GI50 in the test on SK-MEL-28 melanoma was 1.47 µM; in the test with A549 NSCLC, 1.75 µM; in the test with SF-539 CNS, 1.58 µM; with U251 CNS it was 0.348 µM; in the test on SNB-75 CNS, 1.14 µM; in the test with SK-MEL-2 melanoma it was 1.5 µM. Also, the GI50 in the test with MOLT-4 leukemia is 0.681 µM; in the test with COLO 205 colon it was 1.22 µM; in the test on UACC-62 melanoma, 0.343 µM; with SF-295 CNS, 0.882 µM. Moreover, the TGI is 3 µM in the test on SK-MEL-28 melanoma; 3.38 µM with A549 NSCLC; 3.22 µM in the test on SF-539 CNS; 1.42 µM in the test on U251 CNS; 2.78 µM with SNB-75 CNS; 3.88 µM in the test with SK-MEL-2 melanoma. Further, the TGI was 2.65 µM with MOLT-4 leukemia, 2.59 µM in the test with COLO 205 colon, 1.63 µM in the test with UACC-62 melanoma and 2.74 µM in the test on SF-295 CNS.
Turning to `C=C1C(=O)OC2/C=C(/C)C(OC(C)=O)C/C=C(\C)C(OC(=O)C3(C)OC3C)C(O)C12` (stereo not given), the TGI in the test on SK-MEL-28 melanoma, with A549 NSCLC, in the test on SF-539 CNS, in the test on U251 CNS, with SNB-75 CNS and in the test on SK-MEL-2 melanoma was greater than 100 µM each time. For the same molecule, the TGI in the test on MOLT-4 leukemia, in the test on COLO 205 colon, in the test with UACC-62 melanoma and in the test with SF-295 CNS was greater than 100 µM in each case.
As to `CN(C)C(=S)SCC(=O)Nc1ccccc1`, the TGI with SK-MEL-28 melanoma, in the test with A549 NSCLC, with U251 CNS, in the test with SNB-75 CNS, in the test on SK-MEL-2 melanoma and in the test with MOLT-4 leukemia was greater than 100 µM each time. Besides, the TGI with COLO 205 colon, in the test on UACC-62 melanoma and in the test with SF-295 CNS was greater than 100 µM each time.
As for `CC(=O)O[C@H]1CC[C@@]2(C)C(=CC[C@@H]3C2CC[C@]2(C)Nc4nc5ccccc5cc4CC32)C1` (stereo not given in full), the TGI with A549 NSCLC stood at 12.9 µM; in the test on SF-539 CNS, 12 µM; in the test with U251 CNS, 7.58 µM; with SNB-75 CNS it was 8.68 µM; in the test on SK-MEL-2 melanoma it was 31.7 µM; in the test on MOLT-4 leukemia, 11.7 µM. The TGI came out at 20.9 µM with COLO 205 colon, 22.9 µM with UACC-62 melanoma and 13.9 µM in the test with SF-295 CNS.

Values taken from PubChem BioAssay (NCI).
